Data on 1 compound can be found in BindingDB's records for PubMed 10336515 (Banyu Pharmaceutical, 1999).

In general, Ki refers to a measure of affinity in units of concentration, obtained from inhibition or displacement. A lower Ki goes with tighter binding.

For one assay, the target named is T1, Endothelin-1 receptor (Homo sapiens, UniProt P25101).
T1 sequence (P25101 whole entry): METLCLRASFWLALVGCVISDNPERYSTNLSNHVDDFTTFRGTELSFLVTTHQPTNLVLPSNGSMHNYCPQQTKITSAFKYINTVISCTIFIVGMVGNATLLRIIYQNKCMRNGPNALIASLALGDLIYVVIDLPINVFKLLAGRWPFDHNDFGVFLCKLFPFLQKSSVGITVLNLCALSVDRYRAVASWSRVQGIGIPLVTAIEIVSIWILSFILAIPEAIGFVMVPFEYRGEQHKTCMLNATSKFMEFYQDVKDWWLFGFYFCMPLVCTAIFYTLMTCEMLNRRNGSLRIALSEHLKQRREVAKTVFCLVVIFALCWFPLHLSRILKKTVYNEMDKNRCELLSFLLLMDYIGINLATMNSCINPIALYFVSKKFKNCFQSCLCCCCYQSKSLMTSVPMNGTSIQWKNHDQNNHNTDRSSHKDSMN

Assay [1] concerns the target T2, Endothelin receptor type B (Homo sapiens, UniProt P24530).
T2 sequence (P24530 whole entry): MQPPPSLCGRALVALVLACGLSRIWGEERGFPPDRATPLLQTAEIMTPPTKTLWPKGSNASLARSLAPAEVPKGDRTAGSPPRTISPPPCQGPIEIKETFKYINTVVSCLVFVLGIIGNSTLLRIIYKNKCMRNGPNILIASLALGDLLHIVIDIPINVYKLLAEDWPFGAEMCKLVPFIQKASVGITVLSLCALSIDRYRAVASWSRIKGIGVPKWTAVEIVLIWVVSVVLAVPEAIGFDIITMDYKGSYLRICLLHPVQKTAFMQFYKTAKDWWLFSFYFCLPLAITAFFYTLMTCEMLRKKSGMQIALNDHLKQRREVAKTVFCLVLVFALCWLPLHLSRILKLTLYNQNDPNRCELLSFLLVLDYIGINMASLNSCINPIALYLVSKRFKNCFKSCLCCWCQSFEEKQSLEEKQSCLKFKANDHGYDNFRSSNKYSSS

The structures appear in SMILES notation.

Turning to `CCCCc1ccc2c(n1)[C@@H](c1ccc(OC)cc1C[C@H](C)C(=O)O)[C@H](C(=O)O)[C@H]2c1ccc2c(c1)OCO2` [J-104132], the inhibition constant Ki was 0.03 nM at Endothelin-1 receptor and 0.1 nM in assay [1].
